# According to US7118895B2, “Process for producing aglycon by using diglycosidase and flavor-improved food containing the aglycon and converting agent to be used in the process” (Amano Enzyme Inc., priority 2000, dated 2006):
# System: Crude diglycosidase
# Test: Examination of temperature in the conversion into isoflavone aglycons by diglycosidase using soybean materials
# Type: biochemical, Penicillium multicolor IAM7153
# Set-up: Decomposition efficiency of glycitin family in roasted soy flour / Decomposition efficiency of daidzin family in roasted soy flour / Decomposition efficiency of genistin family in soymilk / Decomposition efficiency of daidzin family in soymilk / Decomposition efficiency of glycitin family in defatted soybean / Decomposition efficiency of daidzin family in defatted soybean: concentration or dose not given beside the values
# Outline: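 Soybean materials (50 mg) suspended in 20 mM acetate buffer pH 4.0 reacted with crude diglycosidase diluted to 1.88 AU/mL at 80, 65, 55, 45, 37 or 30° C. Reactions stopped with ethanol at 0, 1, 3 and 6 h; isoflavone glycosides and aglycons in supernatant detected by HPLC.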
# [1] = 30° C., heat treatment of enzyme no, reaction time 0 h
# [2] = 30° C., heat treatment of enzyme no, reaction time 1 h
# [3] = 30° C., heat treatment of enzyme no, reaction time 3 h
# [4] = 30° C., heat treatment of enzyme no, reaction time 6 h
# [5] = 30° C., heat treatment of enzyme yes, reaction time 6 h
# [6] = 30 °C, heat treatment of enzyme: no, 0 h
# [7] = 30 °C, heat treatment of enzyme: no, 1 h
# [8] = 30 °C, heat treatment of enzyme: no, 3 h
# [9] = 30 °C, heat treatment of enzyme: no, 6 h
# [10] = 30 °C, heat treatment of enzyme: yes, 6 h
# [11] = 45° C., heat treatment of enzyme no, reaction time 0 h
# [12] = 45° C., heat treatment of enzyme no, reaction time 1 h
# [13] = 45° C., heat treatment of enzyme no, reaction time 3 h
# [14] = 45° C., heat treatment of enzyme no, reaction time 6 h
# [15] = 45° C., heat treatment of enzyme yes, reaction time 6 h
# [16] = 45 °C, heat treatment of enzyme: no, 0 h
# [17] = 45 °C, heat treatment of enzyme: no, 1 h
# [18] = 45 °C, heat treatment of enzyme: no, 3 h
# [19] = 45 °C, heat treatment of enzyme: no, 6 h
# [20] = 45 °C, heat treatment of enzyme: yes, 6 h
# [21] = 55° C., heat treatment of enzyme no, reaction time 0 h
# [22] = 55° C., heat treatment of enzyme no, reaction time 1 h
# [23] = 55° C., heat treatment of enzyme no, reaction time 3 h
# [24] = 55° C., heat treatment of enzyme no, reaction time 6 h
# [25] = 55° C., heat treatment of enzyme yes, reaction time 6 h
# [26] = 55 °C, heat treatment of enzyme: no, 0 h
# [27] = 55 °C, heat treatment of enzyme: no, 1 h
# [28] = 55 °C, heat treatment of enzyme: no, 3 h
# [29] = 55 °C, heat treatment of enzyme: no, 6 h
# [30] = 55 °C, heat treatment of enzyme: yes, 6 h
# [31] = 65° C., heat treatment of enzyme no, reaction time 0 h
# [32] = 65° C., heat treatment of enzyme no, reaction time 1 h
# [33] = 65° C., heat treatment of enzyme no, reaction time 3 h
# [34] = 65° C., heat treatment of enzyme no, reaction time 6 h
# [35] = 65° C., heat treatment of enzyme yes, reaction time 6 h
# [36] = 65 °C, heat treatment of enzyme: no, 0 h
# [37] = 65 °C, heat treatment of enzyme: no, 1 h
# [38] = 65 °C, heat treatment of enzyme: no, 3 h
# [39] = 65 °C, heat treatment of enzyme: no, 6 h
# [40] = 65 °C, heat treatment of enzyme: yes, 6 h
# [41] = 80° C., heat treatment of enzyme no, reaction time 0 h
# [42] = 80° C., heat treatment of enzyme no, reaction time 1 h
# [43] = 80° C., heat treatment of enzyme no, reaction time 3 h
# [44] = 80° C., heat treatment of enzyme no, reaction time 6 h
# [45] = 80° C., heat treatment of enzyme yes, reaction time 6 h
# [46] = 80 °C, heat treatment of enzyme: no, 0 h
# [47] = 80 °C, heat treatment of enzyme: no, 1 h
# [48] = 80 °C, heat treatment of enzyme: no, 3 h
# [49] = 80 °C, heat treatment of enzyme: no, 6 h
# [50] = 80 °C, heat treatment of enzyme: yes, 6 h
smiles,measurement,setting,value
O=c1c(-c2ccc(O)cc2)coc2cc(O[C@@H]3O[C@H](CO)[C@@H](O)[C@H](O)[C@H]3O)cc(O)c12 [genistin],Decomposition efficiency of genistin family in concentrated soybean protein,[1],49.8%
same,Decomposition efficiency of genistin family in defatted soybean,[1],38.0%
same,Decomposition efficiency of genistin family in concentrated soybean protein,[2],41.1%
same,Decomposition efficiency of genistin family in defatted soybean,[2],not detected
same,Decomposition efficiency of genistin family in concentrated soybean protein,[3],30.3%
same,Decomposition efficiency of genistin family in defatted soybean,[3],not detected
same,Decomposition efficiency of genistin family in concentrated soybean protein,[4],19.7%
same,Decomposition efficiency of genistin family in defatted soybean,[4],7.6%
same,Decomposition efficiency of genistin family in concentrated soybean protein,[5],51.8%
same,Decomposition efficiency of genistin family in defatted soybean,[5],not detected
same,Decomposition efficiency of genistin family in roasted soy flour,[6],49.7%
same,Decomposition efficiency of genistin family in soymilk,[6],30.7%
same,Decomposition efficiency of genistin family in roasted soy flour,[7],25.7%
same,Decomposition efficiency of genistin family in soymilk,[7],not detected
same,Decomposition efficiency of genistin family in roasted soy flour,[8],12.0%
same,Decomposition efficiency of genistin family in soymilk,[8],not detected
same,Decomposition efficiency of genistin family in roasted soy flour,[9],5.5%
same,Decomposition efficiency of genistin family in soymilk,[9],not detected
same,Decomposition efficiency of genistin family in roasted soy flour,[10],50.3%
same,Decomposition efficiency of genistin family in soymilk,[10],31.2%
same,Decomposition efficiency of genistin family in concentrated soybean protein,[11],49.7%
same,Decomposition efficiency of genistin family in defatted soybean,[11],37.0%
same,Decomposition efficiency of genistin family in concentrated soybean protein,[12],22.2%
same,Decomposition efficiency of genistin family in defatted soybean,[12],0.9%
same,Decomposition efficiency of genistin family in concentrated soybean protein,[13],15.6%
same,Decomposition efficiency of genistin family in defatted soybean,[13],1.0%
same,Decomposition efficiency of genistin family in concentrated soybean protein,[14],5.3%
same,Decomposition efficiency of genistin family in defatted soybean,[14],1.0%
same,Decomposition efficiency of genistin family in concentrated soybean protein,[15],54.5%
same,Decomposition efficiency of genistin family in defatted soybean,[15],1.3%
same,Decomposition efficiency of genistin family in roasted soy flour,[16],50.2%
same,Decomposition efficiency of genistin family in soymilk,[16],31.0%
same,Decomposition efficiency of genistin family in roasted soy flour,[17],3.7%
same,Decomposition efficiency of genistin family in soymilk,[17],not detected
same,Decomposition efficiency of genistin family in roasted soy flour,[18],5.6%
same,Decomposition efficiency of genistin family in soymilk,[18],not detected
same,Decomposition efficiency of genistin family in roasted soy flour,[19],1.2%
same,Decomposition efficiency of genistin family in soymilk,[19],not detected
same,Decomposition efficiency of genistin family in roasted soy flour,[20],51.7%
same,Decomposition efficiency of genistin family in soymilk,[20],34.4%
same,Decomposition efficiency of genistin family in concentrated soybean protein,[21],50.1%
same,Decomposition efficiency of genistin family in defatted soybean,[21],38.0%
same,Decomposition efficiency of genistin family in concentrated soybean protein,[22],7.0%
same,Decomposition efficiency of genistin family in defatted soybean,[22],0.0%
same,Decomposition efficiency of genistin family in concentrated soybean protein,[23],0.8%
same,Decomposition efficiency of genistin family in defatted soybean,[23],0.0%
same,Decomposition efficiency of genistin family in concentrated soybean protein,[24],not detected
same,Decomposition efficiency of genistin family in defatted soybean,[24],0.0%
same,Decomposition efficiency of genistin family in concentrated soybean protein,[25],52.3%
same,Decomposition efficiency of genistin family in defatted soybean,[25],0.0%
same,Decomposition efficiency of genistin family in roasted soy flour,[26],49.7%
same,Decomposition efficiency of genistin family in soymilk,[26],31.6%
same,Decomposition efficiency of genistin family in roasted soy flour,[27],1.2%
same,Decomposition efficiency of genistin family in soymilk,[27],not detected
same,Decomposition efficiency of genistin family in roasted soy flour,[28],not detected
same,Decomposition efficiency of genistin family in soymilk,[28],not detected
same,Decomposition efficiency of genistin family in roasted soy flour,[29],not detected
same,Decomposition efficiency of genistin family in soymilk,[29],not detected
same,Decomposition efficiency of genistin family in roasted soy flour,[30],54.0%
same,Decomposition efficiency of genistin family in soymilk,[30],37.4%
same,Decomposition efficiency of genistin family in concentrated soybean protein,[31],49.8%
same,Decomposition efficiency of genistin family in defatted soybean,[31],37.0%
same,Decomposition efficiency of genistin family in concentrated soybean protein,[32],not detected
same,Decomposition efficiency of genistin family in defatted soybean,[32],0.0%
same,Decomposition efficiency of genistin family in concentrated soybean protein,[33],not detected
same,Decomposition efficiency of genistin family in defatted soybean,[33],1.8%
same,Decomposition efficiency of genistin family in concentrated soybean protein,[34],not detected
same,Decomposition efficiency of genistin family in defatted soybean,[34],3.3%
same,Decomposition efficiency of genistin family in concentrated soybean protein,[35],50.8%
same,Decomposition efficiency of genistin family in defatted soybean,[35],28.2%
same,Decomposition efficiency of genistin family in roasted soy flour,[36],49.7%
same,Decomposition efficiency of genistin family in soymilk,[36],30.7%
same,Decomposition efficiency of genistin family in roasted soy flour,[37],not detected
same,Decomposition efficiency of genistin family in soymilk,[37],not detected
same,Decomposition efficiency of genistin family in roasted soy flour,[38],not detected
same,Decomposition efficiency of genistin family in soymilk,[38],not detected
same,Decomposition efficiency of genistin family in roasted soy flour,[39],not detected
same,Decomposition efficiency of genistin family in soymilk,[39],not detected
same,Decomposition efficiency of genistin family in roasted soy flour,[40],50.7%
same,Decomposition efficiency of genistin family in soymilk,[40],44.4%
same,Decomposition efficiency of genistin family in concentrated soybean protein,[41],49.7%
same,Decomposition efficiency of genistin family in defatted soybean,[41],37.0%
same,Decomposition efficiency of genistin family in concentrated soybean protein,[42],29.6%
same,Decomposition efficiency of genistin family in defatted soybean,[42],9.6%
same,Decomposition efficiency of genistin family in concentrated soybean protein,[43],30.3%
same,Decomposition efficiency of genistin family in defatted soybean,[43],22.1%
same,Decomposition efficiency of genistin family in concentrated soybean protein,[44],32.3%
same,Decomposition efficiency of genistin family in defatted soybean,[44],35.3%
same,Decomposition efficiency of genistin family in concentrated soybean protein,[45],51.9%
same,Decomposition efficiency of genistin family in defatted soybean,[45],57.8%
same,Decomposition efficiency of genistin family in roasted soy flour,[46],50.2%
same,Decomposition efficiency of genistin family in soymilk,[46],31.0%
same,Decomposition efficiency of genistin family in roasted soy flour,[47],7.8%
same,Decomposition efficiency of genistin family in soymilk,[47],10.6%
same,Decomposition efficiency of genistin family in roasted soy flour,[48],9.1%
same,Decomposition efficiency of genistin family in soymilk,[48],24.3%
same,Decomposition efficiency of genistin family in roasted soy flour,[49],18.4%
same,Decomposition efficiency of genistin family in soymilk,[49],43.9%
same,Decomposition efficiency of genistin family in roasted soy flour,[50],52.2%
same,Decomposition efficiency of genistin family in soymilk,[50],64.5%
